Laboratory results published in US7799800B2, “Lipid-modified immune response modifiers” (3M Innovative Properties Company, priority 2003, dated 2010).

Row | SMILES | melting point
1 | CCCCCCCCCCCCCCCCCC(=O)NCCOCCn1c(CCOC)nc2c(N)nc3ccccc3c21 [Example 2, N-(2-{2-[4-amino-2-(2-methoxyethyl)-1H-imidazo[4,5-c]quinolin-1-yl]ethoxy}ethyl)octadecanamide] | 80 to 83 °C
2 | CCCCCCCCCCCC(=O)NCCOCCn1c(CCOC)nc2c(N)nc3ccccc3c21 [Example 3, N-(2-{2-[4-amino-2-(2-methoxyethyl)-1H-imidazo[4,5-c]quinolin-1-yl]ethoxy}ethyl)dodecanamide] | 80 to 83 °C
3 | CCCCCCCCCCCCCC(=O)NCCOCCn1c(CCOC)nc2c(N)nc3ccccc3c21 [Example 4, N-(2-{2-[4-amino-2-(2-methoxyethyl)-1H-imidazo[4,5-c]quinolin-1-yl]ethoxy}ethyl)tetradecanamide] | 85 to 87 °C
